# From patent US20240308988A1, “Method For Controlling Diamide Resistant Pests and Compounds Therefor” (priority 2021, published 2024)
# Columns and labels:
# [1] = system: Plutella xylostella (Diamond back moth) ryanodine receptor, containing the G4946E resistance mutation; experiment: In vitro calcium fluorescence assay (Fluo-8 NW, FDSS) in human embryonic kidney cells expressing the ryanodine receptor; type: cell-based; conditions: table, EC50 (compound)/EC50 (cyantraniliprole), G4946E RyR in HEK cells; for REC50 (Comparative compound): secondary amide analogue
# Procedure: Human embryonic kidney cells expressing the Plutella xylostella (Diamond back moth) ryanodine receptor, containing the G4946E resistance mutation, are loaded with Fluo-8 No Wash (NW) calcium-sensitive dye which responds by fluorescence to a change in intracellular calcium (e.g. stimulated by activation of ryanodine receptor). Test compounds are added in 10 rates to a 384-well plate containing dye-loaded cells and the fluorescent signal is measured using the Hamamatsu FDSS (Functional Drug Screening system). Dose-response curves are plotted to estimate the EC50. EC50 are normalized against an in-assay reference standard (cyantraniliprole) to address inter-assay variability. The ratio for a given compound is then obtained by the following formula:
# REC50=EC50 (compound)/EC50 (cyantraniliprole).
# [2] = system: Resistant Plutella xylostella R1 (multi-resistant larvae having the G4946E resistance mutation); experiment: Resistant Plutella xylostella R1 (Diamond back moth) larvicide L3, feeding/contact, sprayed Chinese cabbage leaves; type: in vivo; conditions: Plutella xylostella, 96 h, read-out: control of the resistant strain of Plutella xylostella R1
# Procedure: Resistant Plutella xylostella R1 (Diamond back moth) larvicide L3, feeding/contact Chinese cabbage plants were sprayed with diluted test solutions in an application chamber. Cut off leaves were placed into petri dishes with wetted filter paper and infested 1 day after application with 10 L3 multi-resistant Plutella xylostella larvae having the G4946E resistance mutation.
# Samples were assessed 4 days after infestation for mortality and growth regulation.
# Chlorantraniliprole was used as standard and a resistance factor of 146 was obtained for this strain.
# Plutella xylostella resistant strain R1 originally collected from Taiwan in 2012 that carries the RyR mutation G4946E conferring resistance to diamides. The strain is reared on cabbage plants (Brassica aleracea) and selected approximately every two weeks with chlorantraniliprole.
SMILES,REC50 (Comparative compound) [1],pest or weed control at 50 µg/mL [2],REC50 (Compound of the invention) [1]
CNC(=O)c1cc(I)cc(F)c1NC(=O)c1cc(C(F)(F)F)nn1-c1ncccc1Cl,3.99,–,–
CNC(=O)c1cc(Br)cc(Br)c1NC(=O)c1cc(C(F)(F)F)nn1-c1ncccc1Cl,0.98,–,–
CNC(=O)c1cc(Cl)cc(Cl)c1NC(=O)c1cc(OC)nn1-c1ncccc1Cl,1.20,–,–
CNC(=O)c1cc(C#N)cc(C)c1NC(=O)c1cc(Cn2nnc(-c3ccc(C(F)(F)F)cc3)n2)nn1-c1ncccc1Cl,2.41,–,–
CNC(=O)c1cc(C#N)cc(C)c1NC(=O)c1cc(C(F)(F)F)nn1-c1ncccc1Cl,3.65,–,–
Cc1cc(I)cc(C(=O)NC(C)C)c1NC(=O)c1cc(C(F)(F)F)nn1-c1ncccc1Cl,3.13,–,–
CNC(=O)c1cc(I)cc(C)c1NC(=O)c1cc(Br)nn1-c1ncccc1Cl,0.76,–,–
CNC(=O)c1cc(Cl)cc(Cl)c1NC(=O)c1cc(Br)nn1-c1ncc(Cl)cc1Cl,0.47,–,–
Cc1cc(Br)cc(C(=O)NC(C)C)c1NC(=O)c1cc(C(F)(F)F)nn1-c1ncccc1Cl,8.84,–,–
CNC(=O)c1cc(Br)cc(Cl)c1NC(=O)c1cc(OC)nn1-c1ncccc1Cl,1.32,–,–
CNC(=O)c1cc(Br)cc(C)c1NC(=O)c1cc(OC)nn1-c1ncccc1Cl,1.39,–,–
Cc1cc(Cl)cc(C(=O)NC(C)C)c1NC(=O)c1cc(COCc2ccc(Cl)cc2)nn1-c1ncccc1Cl,1.07,–,–
COc1cc(C(=O)Nc2c(C)cc(Cl)cc2C(=O)NC(C)C)n(-c2ncccc2Cl)n1,2.57,–,–
CNC(=O)c1cc(Cl)cc(C)c1NC(=O)c1cc(C(F)(F)F)nn1-c1ncccc1Cl,1.48,–,–
CNC(=O)c1cc(Cl)cc(C)c1NC(=O)c1cc(OC(F)F)nn1-c1ncccc1Cl,0.58,–,–
CCc1cc(C(=O)Nc2c(C)cc(Cl)cc2C(=O)NC)n(-c2ncccc2Cl)n1,1.41,–,–
CNC(=O)c1cc(Cl)cc(C)c1NC(=O)c1cc(C2CC2)nn1-c1ncccc1Cl,1.15,–,–
CNC(=O)c1cc(Cl)cc(C)c1NC(=O)c1cc(OCC(F)(F)C(F)(F)F)nn1-c1ncccc1Cl,1.85,–,–
CNC(=O)c1cc(Cl)cc(C)c1NC(=O)c1cc(OCC(F)(F)F)nn1-c1ncccc1Cl,1.29,–,–
"Cc1cc(Cl)cc(C(N)=O)c1NC(=O)c1cc(Cn2nnc(C3CC3)n2)nn1-c1ncccc1Cl [Compound P2, N-(2-carbamoyl-4-chloro-6-methyl-phenyl)-2-(3-chloro-2-pyridyl)-5-[(5-cyclopropyltetrazol-2-yl)methyl]pyrazole-3-carboxamide]",–,≥ 80%,–

SMILES,REC50 (Comparative compound) [1],pest or weed control at 50 µg/mL [2],REC50 (Compound of the invention) [1]
"Cc1cc(Cl)cc(C(N)=O)c1NC(=O)c1cc(Cn2nnc(-c3ccc(C(F)(F)F)cc3)n2)nn1-c1ncccc1Cl [Compound P6, N-(2-carbamoyl-4-chloro-6-methyl-phenyl)-2-(3-chloro-2-pyridyl)-5-[[5-[4-(trifluoromethyl)phenyl]tetrazol-2-yl]methyl]pyrazole-3-carboxamide]",–,≥ 80%,–
"Cc1cc(Cl)cc(C(N)=O)c1NC(=O)c1cc(OCC(F)(F)C(F)(F)F)nn1-c1ncccc1Cl [Compound P8, N-(2-carbamoyl-4-chloro-6-methyl-phenyl)-2-(3-chloro-2-pyridyl)-5-(2,2,3,3,3-pentafluoropropoxy)pyrazole-3-carboxamide]",–,≥ 80%,0.14
"COc1cc(C(=O)Nc2c(C)cc(Cl)cc2C(N)=O)n(-c2ncccc2Cl)n1 [Compound P9, N-(2-carbamoyl-4-chloro-6-methyl-phenyl)-2-(3-chloro-2-pyridyl)-5-methoxy-pyrazole-3-carboxamide]",–,≥ 80%,0.37
"COc1cc(C(=O)Nc2c(C)cc(I)cc2C(N)=O)n(-c2ncccc2Cl)n1 [Compound P10, N-(2-carbamoyl-4-iodo-6-methyl-phenyl)-2-(3-chloro-2-pyridyl)-5-methoxy-pyrazole-3-carboxamide]",–,≥ 80%,–
"Cc1cc(Cl)cc(C(N)=O)c1NC(=O)c1cc(Cn2nnnc2-c2ccc(C(F)(F)F)cc2)nn1-c1ncccc1Cl [Compound P15, N-(2-carbamoyl-4-chloro-6-methyl-phenyl)-2-(3-chloro-2-pyridyl)-5-[[5-[4-(trifluoromethyl)phenyl]tetrazol-1-yl]methyl]pyrazole-3-carboxamide]",–,≥ 80%,–
"Cc1cc(Cl)cc(C(N)=O)c1NC(=O)c1cc(Cn2ncc(C(F)(F)F)n2)nn1-c1ncccc1Cl [Compound P19, N-(2-carbamoyl-4-chloro-6-methyl-phenyl)-2-(3-chloro-2-pyridyl)-5-[[4-(trifluoromethyl)triazol-2-yl]methyl]pyrazole-3-carboxamide]",–,≥ 80%,–
"Cc1cc(Cl)cc(C(N)=O)c1NC(=O)c1cc(Cn2cc(C(F)(F)F)nn2)nn1-c1ncccc1Cl [Compound P20, N-(2-carbamoyl-4-chloro-6-methyl-phenyl)-2-(3-chloro-2-pyridyl)-5-[[4-(trifluoromethyl)triazol-1-yl]methyl] pyrazole-3-carboxamide]",–,≥ 80%,–
"Cc1cc(Cl)cc(C(N)=O)c1NC(=O)c1cc(OC(F)F)nn1-c1ncccc1Cl [Compound P21, N-(2-carbamoyl-4-chloro-6-methyl-phenyl)-2-(3-chloro-2-pyridyl)-5-(difluoromethoxy)pyrazole-3-carboxamide]",–,≥ 80%,0.25
"Cc1cc(Cl)cc(C(N)=O)c1NC(=O)c1cc(C(F)F)nn1-c1ncccc1Cl [Compound P22, N-(2-carbamoyl-4-chloro-6-methyl-phenyl)-2-(3-chloro-2-pyridyl)-5-(difluoromethyl)pyrazole-3-carboxamide]",–,≥ 80%,–
"Cc1cc(Cl)cc(C(N)=O)c1NC(=O)c1cc(OCC(F)(F)F)nn1-c1ncccc1Cl [Compound P23, N-(2-carbamoyl-4-chloro-6-methyl-phenyl)-2-(3-chloro-2-pyridyl)-5-(2,2,2-trifluoroethoxy)pyrazole-3-carboxamide]",–,≥ 80%,0.17
"Cc1cc(Cl)cc(C(N)=O)c1NC(=O)c1cc(Br)nn1-c1ncccc1Cl [Compound P24, 5-bromo-N-(2-carbamoyl-4-chloro-6-methyl-phenyl)-2-(3-chloro-2-pyridyl)pyrazole-3-carboxamide]",–,≥ 80%,0.18
"Cc1cc(Cl)cc(C(N)=O)c1NC(=O)c1cc(C(F)(F)F)nn1-c1ncccc1Cl [Compound P25, N-(2-carbamoyl-4-chloro-6-methyl-phenyl)-2-(3-chloro-2-pyridyl)-5-(trifluoromethyl)pyrazole-3-carboxamide]",–,≥ 80%,0.18
"Cc1cc(C#N)cc(C(N)=O)c1NC(=O)c1cc(C(F)F)nn1-c1ncccc1Cl [Compound P28, N-(2-carbamoyl-4-cyano-6-methyl-phenyl)-2-(3-chloro-2-pyridyl)-5-(difluoromethyl)pyrazole-3-carboxamide]",–,≥ 80%,–
"Cc1cc(C#N)cc(C(N)=O)c1NC(=O)c1cc(OCC(F)(F)F)nn1-c1ncccc1Cl [Compound P32, N-(2-carbamoyl-4-cyano-6-methyl-phenyl)-2-(3-chloro-2-pyridyl)-5-(2,2,2-trifluoroethoxy)pyrazole-3-carboxamide]",–,≥ 80%,–
"NC(=O)c1cc(Br)cc(Cl)c1NC(=O)c1cc(Cn2nnc(-c3ccc(C(F)(F)F)cc3)n2)nn1-c1ncccc1Cl [Compound P44, N-(4-bromo-2-carbamoyl-6-chloro-phenyl)-2-(3-chloro-2-pyridyl)-5-[[5-[4-(trifluoromethyl)phenyl]tetrazol-2-yl]methyl]pyrazole-3-carboxamide]",–,≥ 80%,–
"NC(=O)c1cc(Cl)cc(Br)c1NC(=O)c1cc(Cn2nnc(-c3ccc(C(F)(F)F)cc3)n2)nn1-c1ncccc1Cl [Compound P57, N-(2-bromo-6-carbamoyl-4-chloro-phenyl)-2-(3-chloro-2-pyridyl)-5-[[5-[4-(trifluoromethyl)phenyl]tetrazol-2-yl]methyl]pyrazole-3-carboxamide]",–,≥ 80%,–
"Cc1cc(I)cc(C(N)=O)c1NC(=O)c1cc(Cn2nnc(-c3ccc(C(F)(F)F)cc3)n2)nn1-c1ncccc1Cl [Compound P62, N-(2-carbamoyl-4-iodo-6-methyl-phenyl)-2-(3-chloro-2-pyridyl)-5-[[5-[4-(trifluoromethyl)phenyl]tetrazol-2-yl]methyl]pyrazole-3-carboxamide]",–,≥ 80%,–
"CNC(=O)c1cc(C#N)cc(C)c1NC(=O)c1cc(Br)nn1-c1ncccc1Cl [Cyantraniliprole, cyantraniliprole, reference compound]",1.00,–,–
"CC(NC(=O)c1cc(Cl)cc(Br)c1NC(=O)c1cc(Br)nn1-c1ncccc1Cl)C1CC1 (stereo not drawn) [Cyclaniliprole, cyclaniliprole, reference compound]",4.70,–,–
